Data as given in patent US9212196B2, “Hypophosphorous acid derivatives having antihyperalgic activity and biological applications thereof” (UNIVERSITE PARIS DESCARTES, priority 2011, dated 2015).

Tests used:
[1] = system: carrageenan inflammatory pain model; test: Paw pressure test in carrageenan inflammatory pain model in rats; format: in vivo, rat
Method: After the induction period of the neuropathy or inflammation, various amounts of derivative 2 dissolved in serum have been injected in rats, (from 0.5 to 15 μg/rat, i.t. from 1 to 30 mg/kg, i.p.) on time-course of vocalization threshold to paw pressure. The results obtained on healthy animals are given on FIG. 1. They are expressed by the time course curves of means+/−SEM of vocalization threshold in grams (n=6-8 rats per group) (A) or by the area under the curve (B). Morphine (10 μg/rat, i.t.) is used as a positive control. […] FIG. 2 illustrates the effect of intrathecal administration of derivative 2 on the vocalization threshold to paw pressure in the carrageenan inflammatory pain model (effect of derivative 2 (0.5, 1, 5, 10 μg/rat, i.t.) on time-course of vocalization threshold to paw pressure). Morphine (10 μg/rat, i.t.) is used as a positive control. […] Nociceptive thresholds, expressed in grams (g), were measured with a Ugo Basile analgesimeter (Apelex, tip diameter of the probe: 1 mm, weight: 30 g) by applying an increasing pressure to the right hind paw of rats until a squeak (vocalization threshold) was obtained (cut-off was 750 g except carrageenan treated animals for which the cut-off was 500 g). The treatments were done after the measurement of two consecutive stable vocalization threshold values and their effects were assessed 15, 30, 45, 60, 90, and 120 min after. […]

mGlu4 = mGlu4 (Homo sapiens (Human), UniProt Q14833); test: Agonist activity on mGlu4 in transfected HEK293 cells, intracellular calcium release (Fluo4-AM); format: cell-based; settings: transfected cells, calcium release; read-out: mGlu4 EC50 μM (n)
Text: (§1) The EC50's are compared to those of L-AP4 (L-2-amino-4-phosphonobutyric acid) used as a reference.
(§2) Metabotropic glutamate receptors were transiently transfected in HEK293 cells by electroporation as described elsewhere (Brabet I. et al., 1998) and plated in 96-well microplates. The high affinity glutamate transporter EAAC1 was co-transfected with the receptor in order to avoid any influence of glutamate released by the cells in the assay medium. In the experiments carried out by the inventors, Group-III mGluRs were co-transfected with a chimeric G-protein which couples the activation of the receptor to the phospholipase-C (PLC) pathway. Thus receptor activation induces production of inositol phosphate (IP) which in turn induces intracellular Ca^2+ release. Receptor activity was then determined by measurement of the IP production or Ca release as already described (Goudet C. et al., PNAS 2004). For intracellular calcium measurements, cells expressing mGluRs were loaded with Ca2+-sensitive fluorescent dye Fluo-4 AM (Invitrogen, Cergy-Pontoise, France) dissolved in Hanks' balanced salt solution (HBSS, Invitrogen, Cergy-Pontoise, France) containing 2.5 mM Probenicid (Sigma-Aldrich Chemie, Saint-Quentin Fallavier, France) for 1 h at 37° C., then washed and incubated with HBSS containing probenecid. A drug plate was prepared with the various concentrations of agonist to be tested and drug solution was added in each well after 20 s of recording. Fluorescence signals (excitation 485 nm, emission 525 nm) were measured by using the fluorescence microplate reader Flexstation III (Molecular Devices, Saint-Grégoire, France) at sampling intervals of 1.5 s for 60 s. All points are realized in triplicate.
(§3) The dose-response curves were fitted using the GraphPad Prism program and the following equation: y=[(ymax−ymin)/(1+(x/EC50)n)]+ymin where EC50 is the concentration of the compound necessary to obtain the half maximal effect and n is the Hill coefficient.

mGlu6 = mGlu6 (Homo sapiens (Human), UniProt O15303); test: Agonist activity on mGlu6 in transfected HEK293 cells, intracellular calcium release (Fluo4-AM); format: cell-based; settings: transfected cells, calcium release; read-out: mGlu6 EC50 μM (n)
Text: as §1, §2, §3

mGlu8 = mGlu8 (Homo sapiens (Human), UniProt O00222); test: Agonist activity on mGlu8 in transfected HEK293 cells, intracellular calcium release (Fluo4-AM); format: cell-based
Text: as §1, §2, §3

healthy rats = test: Paw pressure test in healthy rats; format: in vivo, rat; settings: i.t., FIG. 1
Method: After the induction period of the neuropathy or inflammation, various amounts of derivative 2 dissolved in serum have been injected in rats, (from 0.5 to 15 μg/rat, i.t. from 1 to 30 mg/kg, i.p.) on time-course of vocalization threshold to paw pressure. The results obtained on healthy animals are given on FIG. 1. They are expressed by the time course curves of means+/−SEM of vocalization threshold in grams (n=6-8 rats per group) (A) or by the area under the curve (B). Morphine (10 μg/rat, i.t.) is used as a positive control.
The animals were submitted to the paw pressure test previously described by Randall and Selitto (1957). Nociceptive thresholds, expressed in grams (g), were measured with a Ugo Basile analgesimeter (Apelex, tip diameter of the probe: 1 mm, weight: 30 g) by applying an increasing pressure to the right hind paw of rats until a squeak (vocalization threshold) was obtained (cut-off was 750 g except carrageenan treated animals for which the cut-off was 500 g). The treatments were done after the measurement of two consecutive stable vocalization threshold values and their effects were assessed 15, 30, 45, 60, 90, and 120 min after.
Intrathecal injections were performed, under isoflurane anesthesia (4% induction, 2% maintenance), as previously described (Mestre et al., 1994). […]

Sequence of mGlu8 (O00222 34-908): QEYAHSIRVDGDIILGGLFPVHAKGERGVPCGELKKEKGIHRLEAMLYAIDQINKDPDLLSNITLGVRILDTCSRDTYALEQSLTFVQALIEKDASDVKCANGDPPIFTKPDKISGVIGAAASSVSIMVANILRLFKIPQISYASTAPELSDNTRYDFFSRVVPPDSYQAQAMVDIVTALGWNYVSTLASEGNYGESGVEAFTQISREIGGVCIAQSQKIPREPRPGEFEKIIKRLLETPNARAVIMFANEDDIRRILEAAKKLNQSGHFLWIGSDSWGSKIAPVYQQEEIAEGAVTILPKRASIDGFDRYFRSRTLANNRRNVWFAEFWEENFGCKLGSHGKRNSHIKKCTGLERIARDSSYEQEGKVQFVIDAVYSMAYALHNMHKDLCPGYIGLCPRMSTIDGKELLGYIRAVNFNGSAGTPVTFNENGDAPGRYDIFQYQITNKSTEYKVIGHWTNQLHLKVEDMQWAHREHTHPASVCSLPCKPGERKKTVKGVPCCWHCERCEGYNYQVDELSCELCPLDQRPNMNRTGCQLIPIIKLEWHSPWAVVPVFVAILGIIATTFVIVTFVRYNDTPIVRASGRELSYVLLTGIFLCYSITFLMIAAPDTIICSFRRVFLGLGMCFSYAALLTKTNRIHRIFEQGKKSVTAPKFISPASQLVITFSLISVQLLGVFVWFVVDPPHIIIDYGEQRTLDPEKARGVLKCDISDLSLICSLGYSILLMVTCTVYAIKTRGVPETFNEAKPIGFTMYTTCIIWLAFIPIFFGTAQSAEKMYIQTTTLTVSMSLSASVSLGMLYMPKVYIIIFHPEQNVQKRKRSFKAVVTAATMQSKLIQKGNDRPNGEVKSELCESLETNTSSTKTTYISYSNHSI
Sequence of mGlu4 (Q14833 33-912): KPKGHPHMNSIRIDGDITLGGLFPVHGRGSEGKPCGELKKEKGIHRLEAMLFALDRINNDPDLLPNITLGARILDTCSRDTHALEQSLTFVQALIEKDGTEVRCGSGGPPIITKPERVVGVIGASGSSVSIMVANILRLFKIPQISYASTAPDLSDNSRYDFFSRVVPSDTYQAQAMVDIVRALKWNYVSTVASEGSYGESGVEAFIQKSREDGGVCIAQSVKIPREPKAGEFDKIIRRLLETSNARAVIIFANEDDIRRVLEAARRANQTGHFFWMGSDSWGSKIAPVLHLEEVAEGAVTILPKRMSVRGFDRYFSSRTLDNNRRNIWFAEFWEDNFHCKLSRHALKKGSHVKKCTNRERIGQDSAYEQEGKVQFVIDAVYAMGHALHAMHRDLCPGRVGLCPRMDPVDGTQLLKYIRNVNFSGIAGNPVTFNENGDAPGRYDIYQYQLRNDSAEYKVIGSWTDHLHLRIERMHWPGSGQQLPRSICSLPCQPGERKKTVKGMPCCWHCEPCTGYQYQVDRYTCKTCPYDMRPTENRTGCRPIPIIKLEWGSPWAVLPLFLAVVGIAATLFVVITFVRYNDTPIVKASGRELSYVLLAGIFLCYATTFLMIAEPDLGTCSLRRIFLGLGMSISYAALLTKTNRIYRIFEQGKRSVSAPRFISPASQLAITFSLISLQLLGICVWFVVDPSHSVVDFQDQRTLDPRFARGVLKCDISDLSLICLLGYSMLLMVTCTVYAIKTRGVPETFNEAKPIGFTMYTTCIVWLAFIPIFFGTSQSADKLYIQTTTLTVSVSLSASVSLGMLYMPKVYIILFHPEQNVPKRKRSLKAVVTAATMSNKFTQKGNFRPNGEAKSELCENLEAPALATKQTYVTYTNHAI
Sequence of mGlu6 (O15303 25-877): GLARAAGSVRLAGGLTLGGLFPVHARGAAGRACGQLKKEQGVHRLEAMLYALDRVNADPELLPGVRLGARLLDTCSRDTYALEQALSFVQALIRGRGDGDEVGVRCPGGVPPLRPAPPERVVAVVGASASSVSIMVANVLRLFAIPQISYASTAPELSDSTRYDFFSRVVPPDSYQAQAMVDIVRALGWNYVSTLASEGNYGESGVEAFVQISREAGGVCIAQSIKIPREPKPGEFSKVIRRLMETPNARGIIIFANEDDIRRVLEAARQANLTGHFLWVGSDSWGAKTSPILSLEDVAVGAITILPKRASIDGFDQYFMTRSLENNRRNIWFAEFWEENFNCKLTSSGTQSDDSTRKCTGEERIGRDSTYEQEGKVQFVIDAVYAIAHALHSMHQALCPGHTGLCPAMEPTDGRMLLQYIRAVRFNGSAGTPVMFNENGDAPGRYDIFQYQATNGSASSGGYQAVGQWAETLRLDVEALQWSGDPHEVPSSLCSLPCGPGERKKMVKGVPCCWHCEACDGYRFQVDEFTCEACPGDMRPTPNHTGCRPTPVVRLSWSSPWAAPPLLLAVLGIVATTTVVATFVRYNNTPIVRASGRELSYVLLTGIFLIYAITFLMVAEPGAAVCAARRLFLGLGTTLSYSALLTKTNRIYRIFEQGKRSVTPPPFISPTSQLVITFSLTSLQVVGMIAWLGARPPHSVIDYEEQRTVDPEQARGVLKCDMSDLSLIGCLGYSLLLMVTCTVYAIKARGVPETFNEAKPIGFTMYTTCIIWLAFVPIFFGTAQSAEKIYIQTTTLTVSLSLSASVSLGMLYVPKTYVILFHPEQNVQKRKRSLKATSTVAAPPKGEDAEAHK

SMILES: N[C@@H](CCP(=O)(O)C(O)c1ccc(OCC(=O)O)cc1)C(=O)O (stereo partly drawn) [Derivative 2, [((3S)-3-Amino-3-carboxy)propyl][(4-(carboxymethoxy)phenyl)hydroxymethyl]phosphinic Acid]
- antihyperalgesic effect on vocalization threshold to paw pressure ([1]; carrageenan inflammatory pain, rats, 0.5-10 μg/rat i.t., FIG. 2): abolishes the excess of mechanical pain
- antihyperalgesic effect compared to morphine ([1]; inflammatory pain, morphine 10 μg/rat i.t. as control): close to the one of morphine
- EC50 (mGlu4): 0.11 ± 0.02 µM
- EC50 (mGlu6): 4.2 ± 0.6 µM
- mGlu8/4 EC50 ratio (mGlu8; ratio of mGlu8 EC50 to mGlu4 EC50): 256
- EC50 (mGlu8; transfected cells, calcium release, read-out: mGlu8 EC50 μM (n)): 29.2 ± 4.2 µM
- perception of mechanical acute pain (vocalization threshold to paw pressure) (healthy rats): does not modify the perception of the mechanical acute pain
